Read-outs that look alike come from different tables or passages of the source. Blank lines part the entries; values can stand above or below the compound they belong to.
Experiments:
Format in all cases: biochemical
CDK4/CycD3 = CDK4/CycD3 (Homo sapiens, UniProt P11802); assay: Determination of CDK activity (Caliper mobility shift, FAM-P8 peptide): CDK4; conditions: CDK4/CycD3; read-out: CDK4 enzymatic inhibitory activity (IC50)
Protocol: (§1) In vitro, CDK (CDK4, CDK6, CDK1, CDK2, CDK7, and CDK9) kinase activity was tested by the following method.
(§2) CDK and raw materials used here: CDK4/CycD3 (Carna, Cat. No 04-105, Lot. No 10CBS-0429 C, GST-CDK4(1-303end)/GST-CycD3(1-292end)); CDK6/cycD3 (Carna, Cat. No 04-107, Lot. No 09CBS-0622K, GST-CDK6(1-326(end))); CDK1/CyclinB (Millipore, Cat. 14-450k, Lot. No 25729U, His-CDK1+GST-cyclinB); CDK2/CycA2 (Carna, Cat. No 04-103, Lot. No 06CBS-3024, GST-CDK2 (1-298(end))); CDK7/CyclinH/MAT1 (Millipore, Cat. No 14-476M, Lot. No WAB0365-A, His-CDK7+GST-MAT1+cyclinH); CDK9/cyclinTl (Millipore, Cat. No 14-685K, Lot. No. 2476163-A, His-CDK9+cyclinTl); Peptide FAM-P8 (GL Biochem, Cat. No. 112396, Lot. No. P100804-XZ112396); ATP (Sigma, Cat. No. A7699-1G, CAS No. 987-65-5); DMSO (Sigma, Cat. No. D2650, Lot. No. 474382); EDTA (Sigma, Cat. No. E5134, CAS No. 60-00-4); 96-well plate (Corning, Cat. No. 3365, Lot. No. 22008026); 384-well plate (Corning, Cat. No. 3573, Lot. No. 12608008); Staurosporine (Sigma, Cat. No. S4400-1MG, Lot. No. 046K4080).
(§3) 1. Prepared 1× Kinase Buffer and Stop Buffer for the Test
2) 1× Kinase Base Buffer (CDK4).
(§4) 1) Diluted the compound to 50 times of the maximum concentration with 100% DMSO. For example, if the desired maximum inhibitory concentration is 10 μM, then a DMSO solution of 500 μM concentration is required.
(§5) 2) Transferred the compound to a 96-well plate and serially diluted the compound from a 100% DMSO solution at a ratio of 30 μm to 60 μm for a total of 10 concentrations gradients. 3) Transferred 100 μm of 100% DMSO to two empty wells as a no compound control and a no enzyme control.
(§6) 4) Prepared intermediate plate and transferred the compound of 10 μm concentration from the original plate to the intermediate plate, and then 90 μm of 1× kinase buffer was added and mixed by shaking for 10 min.
(§7) 4) Preparing intermediate plate and transferred the compound of […] concentration from the original plate to the intermediate plate, and then 90 μm of 1× kinase buffer was added and mixed by shaking for 10 min.
(§8) 1) Transferred 5 μm of each compound from the 96-well intermediate plate to a 384-well plate. For example, A1 of the 96-well plate was transferred to A1 and A2 of the 384-well plate. A2 of the 96-well plate was transferred to A3 and A4 of the 384-well plate, and so on.
(§9) 1) Prepared a 2.5× enzyme solution: added kinase into 1× kinase base buffer.
(§10) 2) Prepared a 2.5× peptide solution: added FAM-labeled peptide and ATP into the 1× kinase base buffer.
(§11) 3) Transferred the 2.5× enzyme solution to the assay plate: Assay plate already contained 5 μm of 10% DMSO and transferred 10 μm of 2.5× enzyme solution to each well.
(§12) 4) Incubated at room temperature for 10 min.
(§13) 5) Transferred the 2.5× peptide solution to the assay plate: added 10 μm of 2.5× peptide solution to each well of the 384-well assay plate.
(§14) 6) Kinase reaction and termination: incubated at 28° C. for a specified period and added 25 μm of stop buffer to stop the reaction.
(§15) 5. Caliper Reading: Collect Data on Caliper.
(§16) 1) Copied conversion data from Caliper program and Converted conversion values to inhibition values: Inhibition rate (%)=(1−OD value of the compound-OD value of the control well)/(OD value of the control empty-OD value of the control well)*100%.
(§17) 2) Fitted the data in XLFit excel add-in version 4.3.1 to give the corresponding IC50 values.

CDK6/cycD3 = CDK6/cycD3 (Homo sapiens, UniProt Q00534); assay: Determination of CDK activity (Caliper mobility shift, FAM-P8 peptide): CDK6; conditions: CDK6/cycD3; read-out: CDK6 enzymatic inhibitory activity (IC50)
Protocol: as §1, §2, §3
(§18) 1) 1× Kinase Base Buffer (CDK1, 2, and 6).
as §4, §5, §6, §7, §8, §9, §10, §11, §12, §13, §14, §15, §16, §17

CDK1/CyclinB = CDK1/CyclinB (Homo sapiens, UniProt P06493); assay: Determination of CDK activity (Caliper mobility shift, FAM-P8 peptide): CDK1; conditions: CDK1/CyclinB; read-out: CDK1 enzymatic inhibitory activity (IC50)
Protocol: as §1, §3, §18, §4, §5
(§19) 1) Transferred 5 μm of each compound from the 96-well intermediate plate to a 384-well plate. […] A2 of the 96-well plate was transferred to A3 and A4 of the 384-well plate, and so on.
as §9, §10, §11, §12, §13, §14, §15, §16, §17

CDK2/CycA2 = CDK2/CycA2 (Homo sapiens, UniProt P24941); assay: Determination of CDK activity (Caliper mobility shift, FAM-P8 peptide): CDK2; conditions: CDK2/CycA2; read-out: CDK2 enzymatic inhibitory activity (IC50)
Protocol: as §1, §3, §18, §4, §5, §19, §9, §10, §11, §12, §13, §14, §15, §16, §17

CDK7/CyclinH/MAT1 = CDK7/CyclinH/MAT1 (Homo sapiens, UniProt P50613); assay: Determination of CDK activity (Caliper mobility shift, FAM-P8 peptide): CDK7; conditions: CDK7/CyclinH/MAT1; read-out: CDK7 enzymatic inhibitory activity (IC50)
Protocol: as §1, §2, §3
(§20) 3) 1× Kinase Base Buffer (CDK7 and 9).
as §4, §5, §6, §7, §8, §9, §10, §11, §12, §13, §14, §15, §16, §17

CDK9/cyclinTl = CDK9/cyclinTl (Homo sapiens, UniProt P50750); assay: Determination of CDK activity (Caliper mobility shift, FAM-P8 peptide): CDK9; conditions: CDK9/cyclinTl
Protocol: as §1, §3, §20, §4, §5, §19, §9, §10, §11, §12, §13, §14, §15, §16, §17

[1] = read-out: CDK9 enzymatic inhibitory activity (IC50)
[2] = CDK9 enzymatic inhibitory activity (IC50)

Chain of CDK1/CyclinB (P06493 whole entry): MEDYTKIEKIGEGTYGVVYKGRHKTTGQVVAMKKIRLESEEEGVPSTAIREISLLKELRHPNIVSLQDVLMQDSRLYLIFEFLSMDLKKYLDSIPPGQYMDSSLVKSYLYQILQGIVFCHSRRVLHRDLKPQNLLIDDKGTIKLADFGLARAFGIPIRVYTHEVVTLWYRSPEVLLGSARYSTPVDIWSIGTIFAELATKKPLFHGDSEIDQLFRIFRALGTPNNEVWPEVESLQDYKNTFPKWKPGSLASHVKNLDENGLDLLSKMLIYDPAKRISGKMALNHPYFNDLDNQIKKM
Chain of CDK1/CyclinB (P14635 whole entry partner): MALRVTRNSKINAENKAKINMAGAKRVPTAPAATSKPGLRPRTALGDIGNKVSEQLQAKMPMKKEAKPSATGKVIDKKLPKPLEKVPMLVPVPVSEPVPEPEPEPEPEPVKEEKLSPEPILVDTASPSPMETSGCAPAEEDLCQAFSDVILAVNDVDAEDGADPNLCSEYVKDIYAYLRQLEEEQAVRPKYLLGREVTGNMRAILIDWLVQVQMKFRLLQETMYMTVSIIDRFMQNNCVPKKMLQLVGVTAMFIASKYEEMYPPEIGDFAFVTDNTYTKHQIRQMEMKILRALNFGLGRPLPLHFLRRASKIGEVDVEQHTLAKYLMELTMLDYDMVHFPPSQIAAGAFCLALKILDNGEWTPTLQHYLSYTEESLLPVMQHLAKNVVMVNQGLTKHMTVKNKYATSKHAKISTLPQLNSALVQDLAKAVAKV
Chain of CDK7/CyclinH/MAT1 (P50613 whole entry): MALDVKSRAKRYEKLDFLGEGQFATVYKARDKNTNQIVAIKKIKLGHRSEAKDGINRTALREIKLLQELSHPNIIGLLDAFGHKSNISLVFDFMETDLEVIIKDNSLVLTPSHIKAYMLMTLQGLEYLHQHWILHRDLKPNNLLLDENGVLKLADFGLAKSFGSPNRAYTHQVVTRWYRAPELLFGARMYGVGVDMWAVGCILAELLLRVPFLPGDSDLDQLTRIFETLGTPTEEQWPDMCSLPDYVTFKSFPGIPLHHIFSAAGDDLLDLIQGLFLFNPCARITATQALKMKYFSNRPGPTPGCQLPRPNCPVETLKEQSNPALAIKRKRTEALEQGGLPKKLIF
Chain of CDK7/CyclinH/MAT1 (P51946 whole entry partner): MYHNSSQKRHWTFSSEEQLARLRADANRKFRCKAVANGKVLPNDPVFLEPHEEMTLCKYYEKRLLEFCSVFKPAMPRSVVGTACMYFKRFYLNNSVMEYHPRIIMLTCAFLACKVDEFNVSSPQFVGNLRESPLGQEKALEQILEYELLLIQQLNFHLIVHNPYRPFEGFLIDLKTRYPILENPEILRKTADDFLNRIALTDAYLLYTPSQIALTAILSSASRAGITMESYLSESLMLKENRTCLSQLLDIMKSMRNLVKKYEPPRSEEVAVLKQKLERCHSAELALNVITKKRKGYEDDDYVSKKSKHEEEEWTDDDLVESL
Chain of CDK7/CyclinH/MAT1 (P51948 whole entry partner): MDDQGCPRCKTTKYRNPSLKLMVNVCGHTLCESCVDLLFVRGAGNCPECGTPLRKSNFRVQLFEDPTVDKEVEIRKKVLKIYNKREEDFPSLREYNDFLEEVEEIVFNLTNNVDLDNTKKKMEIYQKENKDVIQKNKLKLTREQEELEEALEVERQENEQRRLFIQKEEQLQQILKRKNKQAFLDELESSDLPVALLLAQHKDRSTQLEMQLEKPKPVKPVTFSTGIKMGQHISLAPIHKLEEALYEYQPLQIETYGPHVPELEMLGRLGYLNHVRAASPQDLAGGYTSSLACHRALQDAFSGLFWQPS
Chain of CDK9/cyclinTl (P50750 whole entry): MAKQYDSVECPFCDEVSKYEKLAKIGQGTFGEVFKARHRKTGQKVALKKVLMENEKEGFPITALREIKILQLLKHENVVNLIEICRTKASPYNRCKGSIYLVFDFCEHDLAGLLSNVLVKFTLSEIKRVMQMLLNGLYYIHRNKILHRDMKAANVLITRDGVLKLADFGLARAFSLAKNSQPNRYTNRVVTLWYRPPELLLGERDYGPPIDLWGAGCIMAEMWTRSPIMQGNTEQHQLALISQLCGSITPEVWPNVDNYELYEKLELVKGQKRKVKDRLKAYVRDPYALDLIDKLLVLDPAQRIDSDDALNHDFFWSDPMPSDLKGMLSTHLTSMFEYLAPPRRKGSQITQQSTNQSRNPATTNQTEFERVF
Chain of CDK9/cyclinTl (O60563 whole entry partner): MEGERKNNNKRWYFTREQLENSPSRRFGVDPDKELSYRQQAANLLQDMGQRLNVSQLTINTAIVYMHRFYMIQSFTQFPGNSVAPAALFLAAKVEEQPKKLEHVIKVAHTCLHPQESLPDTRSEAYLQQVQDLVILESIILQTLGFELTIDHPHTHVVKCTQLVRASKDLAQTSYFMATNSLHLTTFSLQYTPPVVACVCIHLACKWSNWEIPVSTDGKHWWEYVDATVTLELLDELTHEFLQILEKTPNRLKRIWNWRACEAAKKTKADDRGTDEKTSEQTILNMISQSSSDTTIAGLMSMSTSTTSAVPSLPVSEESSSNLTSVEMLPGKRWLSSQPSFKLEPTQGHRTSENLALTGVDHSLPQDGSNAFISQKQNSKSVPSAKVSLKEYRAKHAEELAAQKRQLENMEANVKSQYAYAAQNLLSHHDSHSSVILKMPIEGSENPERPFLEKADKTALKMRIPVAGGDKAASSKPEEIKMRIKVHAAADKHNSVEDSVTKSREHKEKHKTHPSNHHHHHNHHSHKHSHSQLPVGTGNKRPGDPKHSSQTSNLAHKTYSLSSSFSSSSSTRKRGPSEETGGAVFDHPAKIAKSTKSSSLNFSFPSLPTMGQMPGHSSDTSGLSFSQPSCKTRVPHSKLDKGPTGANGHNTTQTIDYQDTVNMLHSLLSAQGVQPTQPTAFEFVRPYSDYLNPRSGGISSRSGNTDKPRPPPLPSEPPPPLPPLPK
Chain of CDK6/cycD3 (Q00534 whole entry): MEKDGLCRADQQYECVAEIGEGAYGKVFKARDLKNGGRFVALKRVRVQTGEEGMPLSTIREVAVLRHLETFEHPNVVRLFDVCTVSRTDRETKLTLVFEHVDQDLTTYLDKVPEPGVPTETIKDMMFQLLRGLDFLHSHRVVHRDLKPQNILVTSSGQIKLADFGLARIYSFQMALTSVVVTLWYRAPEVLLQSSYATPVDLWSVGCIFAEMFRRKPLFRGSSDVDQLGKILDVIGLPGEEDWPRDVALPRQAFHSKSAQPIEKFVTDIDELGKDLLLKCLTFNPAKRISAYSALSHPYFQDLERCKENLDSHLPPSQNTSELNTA
Chain of CDK6/cycD3 (P30281 whole entry partner): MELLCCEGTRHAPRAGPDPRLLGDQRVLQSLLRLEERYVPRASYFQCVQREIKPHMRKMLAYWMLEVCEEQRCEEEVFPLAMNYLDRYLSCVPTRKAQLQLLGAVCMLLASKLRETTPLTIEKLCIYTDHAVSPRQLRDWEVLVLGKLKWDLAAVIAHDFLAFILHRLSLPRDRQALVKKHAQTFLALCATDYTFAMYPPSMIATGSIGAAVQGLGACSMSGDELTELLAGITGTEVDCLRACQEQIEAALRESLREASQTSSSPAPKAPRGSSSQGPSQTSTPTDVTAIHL
Chain of CDK4/CycD3 (P11802 whole entry): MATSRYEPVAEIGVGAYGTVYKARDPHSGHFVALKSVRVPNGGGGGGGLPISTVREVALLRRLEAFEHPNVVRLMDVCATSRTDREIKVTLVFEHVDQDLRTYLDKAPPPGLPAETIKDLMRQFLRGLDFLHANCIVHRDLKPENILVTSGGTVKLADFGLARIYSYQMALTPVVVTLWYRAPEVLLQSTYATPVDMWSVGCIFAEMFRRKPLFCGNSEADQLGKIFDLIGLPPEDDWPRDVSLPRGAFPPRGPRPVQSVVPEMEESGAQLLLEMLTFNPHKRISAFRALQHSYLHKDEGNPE
Chain of CDK4/CycD3 (P30281 whole entry partner): as the sequence (P30281 whole entry partner) above

SMILES: Cc1nc2c(F)cc(-c3nc(Nc4ccc([C@H](C)C5CCN(C(C)C)CC5)cn4)ncc3F)cc2n1C(C)C (single isomer, unassigned) [Example 73]
IC50 (CDK4/CycD3): < 100 nM
IC50 (CDK6/cycD3): < 100 nM
IC50 (CDK1/CyclinB): 100 to 500 nM
IC50 (CDK2/CycA2): < 100 nM
IC50 (CDK7/CyclinH/MAT1): 1000 to 10000 nM
IC50 (CDK9/cyclinTl; [1]): 500 to 1000 nM

SMILES: CC[C@@H](c1ccc(Nc2ncc(F)c(-c3cc(F)c4nc(C)n(C(C)C)c4c3)n2)nc1)N1CCN(C)CC1 [Example 6]
IC50 (CDK4/CycD3): < 100 nM
IC50 (CDK6/cycD3): 100 to 500 nM
IC50 (CDK1/CyclinB): 10000 to 100000 nM
IC50 (CDK2/CycA2): 1000 to 10000 nM
IC50 (CDK7/CyclinH/MAT1): 1000 to 10000 nM
IC50 (CDK9/cyclinTl; [2]): 1000 to 10000 nM

SMILES: CC[C@H](c1ccc(Nc2ncc(F)c(-c3cc(F)c4nc(C)n(C(C)C)c4c3)n2)nc1)N1CCN(C)CC1 [Example 7]
IC50 (CDK4/CycD3): < 100 nM
IC50 (CDK6/cycD3): 1000 to 10000 nM
IC50 (CDK1/CyclinB): 10000 to 100000 nM
IC50 (CDK2/CycA2): 10000 to 100000 nM
IC50 (CDK7/CyclinH/MAT1): 1000 to 10000 nM
IC50 (CDK9/cyclinTl; [2]): 10000 to 100000 nM

SMILES: CC[C@@H](c1ccc(Nc2ncc(F)c(-c3cc(F)c4nc(C)n(C(C)C)c4c3)n2)nc1)C1CCN(CC)CC1 [Example 25]
IC50 (CDK4/CycD3): 100 to 500 nM
IC50 (CDK6/cycD3): 100 to 500 nM
IC50 (CDK1/CyclinB): 500 to 1000 nM
IC50 (CDK2/CycA2): 100 to 500 nM
IC50 (CDK7/CyclinH/MAT1): 1000 to 10000 nM
IC50 (CDK9/cyclinTl; [1]): 500 to 1000 nM

Further lines, results first:

IC50 (CDK4/CycD3): < 100 nM
IC50 (CDK6/cycD3): 100 to 500 nM
IC50 (CDK1/CyclinB): 500 to 1000 nM
IC50 (CDK2/CycA2): 100 to 500 nM
IC50 (CDK7/CyclinH/MAT1): 1000 to 10000 nM
IC50 (CDK9/cyclinTl; [1]): 100 to 500 nM
SMILES: Cc1nc2c(F)cc(-c3nc(Nc4ccc([C@@H](C)C5CCN(C(C)C)CC5)cn4)ncc3F)cc2n1C(C)C (single isomer, unassigned) [Example 74]

IC50 (CDK4/CycD3): < 100 nM
IC50 (CDK6/cycD3): < 100 nM
IC50 (CDK1/CyclinB): 100 to 500 nM
IC50 (CDK2/CycA2): < 100 nM
IC50 (CDK7/CyclinH/MAT1): 1000 to 10000 nM
IC50 (CDK9/cyclinTl; [1]): 100 to 500 nM
SMILES: COCCN1CCC([C@@H](C)c2ccc(Nc3ncc(F)c(-c4cc(F)c5nc(C)n(C(C)C)c5c4)n3)nc2)CC1 (single isomer, unassigned) [Example 79]

IC50 (CDK4/CycD3): < 100 nM
IC50 (CDK6/cycD3): 100 to 500 nM
IC50 (CDK1/CyclinB): 500 to 1000 nM
IC50 (CDK2/CycA2): 100 to 500 nM
IC50 (CDK7/CyclinH/MAT1): 1000 to 10000 nM
IC50 (CDK9/cyclinTl; [1]): 100 to 500 nM
SMILES: COCCN1CCC([C@H](C)c2ccc(Nc3ncc(F)c(-c4cc(F)c5nc(C)n(C(C)C)c5c4)n3)nc2)CC1 (single isomer, unassigned) [Example 80]

IC50 (CDK4/CycD3): < 100 nM
IC50 (CDK6/cycD3): 500 to 1000 nM
IC50 (CDK1/CyclinB): 10000 to 100000 nM
IC50 (CDK2/CycA2): 1000 to 10000 nM
IC50 (CDK7/CyclinH/MAT1): 1000 to 10000 nM
IC50 (CDK9/cyclinTl; [1]): 1000 to 10000 nM
SMILES: CC[C@@H](c1ccc(Nc2ncc(F)c(-c3cc(F)c4nc(C)n(C(C)C)c4c3)n2)nc1)N1CCNCC1 [Example 4]

IC50 (CDK4/CycD3): < 100 nM
IC50 (CDK6/cycD3): 1000 to 10000 nM
IC50 (CDK1/CyclinB): 10000 to 100000 nM
IC50 (CDK2/CycA2): 10000 to 100000 nM
IC50 (CDK7/CyclinH/MAT1): 1000 to 10000 nM
IC50 (CDK9/cyclinTl; [1]): 10000 to 100000 nM
SMILES: CC[C@H](c1ccc(Nc2ncc(F)c(-c3cc(F)c4nc(C)n(C(C)C)c4c3)n2)nc1)N1CCNCC1 [Example 5]

IC50 (CDK4/CycD3): 100 to 500 nM
IC50 (CDK6/cycD3): 100 to 500 nM
IC50 (CDK1/CyclinB): 500 to 1000 nM
IC50 (CDK2/CycA2): 500 to 1000 nM
IC50 (CDK7/CyclinH/MAT1): 1000 to 10000 nM
IC50 (CDK9/cyclinTl; [1]): 500 to 1000 nM
SMILES: CC[C@H](c1ccc(Nc2ncc(F)c(-c3cc(F)c4nc(C)n(C(C)C)c4c3)n2)nc1)C1CCN(CC)CC1 [Example 26]

Reference: patent US11179391B2, “Compound with kinase inhibitory activity and preparation method and use thereof” (priority 2017, dated 2021)
